The source of these data is patent US10357537B2, “Cyclotides as immunosuppressive agents” (priority 2011, dated 2019).

One data set deals with H. contortus nematodes. Particulars: Huang et al., 2010; read-out: IC50 nematocidal activity; cited from earlier work.
Data set [1] relates to T. colibriformus nematodes. Particulars: Huang et al., 2010; read-out: IC50 nematocidal activity; cited from earlier work.
The test system of data set [2] is activated human primary PBMC. As for the experimental part:
(§1) After cultivation, the cells were assessed in bioassays as described in the text.
The levels of apoptosis were determined using the annexin V-FITC apoptosis detection kit (eBioscience, Frankfurt, Germany) according to the manufacturer's instructions. After annexin V staining, propidium iodide solution (PI; eBioscience) was added and the cells were incubated in the dark, followed by a flow cytometric analysis to determine the amount of apoptosis and necrosis. CPT (30 μg/mL) and Triton-X 100 (0.5%) was used as positive controls for apoptosis and necrosis, respectively.
Cellular apoptotic and necrotic hallmarks were measured by using inter-nucleosomal DNA fragmentation (subG1^+ cells) assay and phosphatidylserine surface analysis through a single and combinatory annexin V and propidium iodide staining. This double staining process allowed the discrimination between viable (annexin^−/PI^−), apoptotic (annexin^+/PI^− and annexin^+/PI^+) or necrotic (annexin^−/PI^+) cells.

A further data set has as its system nematodes. In words: Relative nematocidal activity (other assays, Table 2). The data set is classed as in vivo. The note with it: some cells print two values separated by a slash.
The subject of a further data set is anti-MOG antibodies. In words: MOG-specific antibody ELISA of sera. It is filed as in vivo, mouse. The note with it: Day 43, reactivity to MOG35-55. Here is the method:
Antibody activity to rMOG and MOG35-55 in mouse sera was measured by ELISA, as previously described Ichikawa Cell Immunol 191, 1999, 97-104). Briefly, serum was collected at the end of the experiments and tested by ELISA with rMOG and MOG35-55 peptide-coated plates (Maxisorp, Nunc).
Whether the suppression of EAE in mice vaccinated with kalata B1 was associated with a decrease in the production of specific antibodies to MOG was examined. Accordingly, sera from kalata B1 and PBS treated mice were collected at the completion of the experiment (Day 43) and tested for their reactivity to MOG35-55.
On the technique in general: An ELISA detects its analyte on a solid surface through an enzyme-linked reagent.

Data set [3] has as its system splenocytes of vaccinated EAE mice. Particulars: MOG35-55.
Experimental: Spleens were taken from mice sacrificed 32-46 days after MOG35-55 immunization. Cells were gently dispersed through a 70 μm nylon mesh (BD) into a single cell suspension, washed and cultured at 2.5×10^6 cells/ml in complete RPMI (RPMI 1640 containing 10% heat-inactivated fetal calf serum (Sigma), 2 mM L-glutamine, 100 U/ml of penicillin, 100 μg/ml of streptomycin, 50 μm 2-mercaptoethanol and 1 mm sodium pyruvate. Two hundred microliters of cell suspensions were then added to 96 well microtitre plates either alone, with MOG35-55 (20 μg/ml) or anti-CD3ε and anti-CD 28 (20 μg/ml each) and incubated for 66 h at 37° C. with 5% CO2. Ten microliters of [^3H]thymidine (1 μCi/well; Amersham, Australia; diluted 1/10 in media) were added to each well for the last 18 h. Plates were harvested onto glass fibre filters and a drop of Microscint Scintillant (Perkin Elmer) was added to each well. Counts were read using a Top Count NXT Scintillation Counter (Perkin Elmer). Presented values are the mean of three wells.
Data set [4] in a line: Relative insecticidal activity (other assays, Table 2). The note with it: in vivo.
In data set [5] the test system is spleen cell cultures of EAE mice. In words: Cytokine bead array of spleen cell supernatants. The data set is classed as cell-based, mouse.
Experimental: For cytokine assays, 2 ml of cells (5×10^6 cells/ml) from spleens isolated 32-46 days after immunization were added to 24 well plates either alone or with MOG35-55 (10 μg/ml) or with anti-CD3ε and anti-CD 28 (20 μg/ml each). Supernatants were collected at 48 and 72 h. Quantitation of mouse cytokine content incorporating Th1, Th2 cytokines and chemokines (IFNγ, IL-2, IL-3, IL-4, IL-5, IL-6, IL-9, IL-10, IL-12p70, IL-13, GM-CSF, KC, MCP-1, MIG, and TNF) were simultaneously determined using a multiplexed bead assay (Cytometric Bead Array Flex sets [CBA]) according to the manufacturer's recommended protocol (Becton Dickinson). Acquisition of 4500 events was performed using a FACScanto II flow cytometer (Becton Dickinson, San Jose, USA) and Diva software and data analysed and fitted to a 4-parameter logistic equation using the FCAP array software (Soft Flow, Pécs, Hungary). Minimum detection levels of each cytokine were: IFNγ, 5.2 μg/ml; IL-2, 1.5 μg/ml; IL-3, 4.2 μg/ml; IL-4, 0.8 μg/ml; IL-5, 4.8 μg/ml; IL-6, 6.5 μg/ml; IL-9, 10.5 μg/ml; IL-10, 16.4 μg/ml; IL-12p70, 9.2 μg/ml; IL-13, 7.3 μg/ml; GM-CSF, 9.9 μg/ml; KC, 16.2 μg/ml; MCP-1, 29 μg/ml; MIG, 11.4 μg/ml and TNF, 17.1 μg/ml.
Accordingly, conditioned media generated from in vitro stimulated and non-stimulated spleen cell cultures were assessed in cytokine bead array assays. A total of 15 cytokines were analysed simultaneously, including, IL2, IL3, IL4, IL5, IL6, IL9, IL10, IL12p70, IL13, IFNγ, GM-CSF, KC, MCP1, MIG and TNFα.
In data set [6] the test system is experimental auto-immune encephalomyelitis in C57BL/6 mice. The data set is classed as in vivo, mouse. The note with it: 43 days.
Data set [7] deals with activated human primary PBMC. In words: Flow cytometric forward-side-scatter analysis of viability and proliferation. The data set is classed as cell-based. The note with it: data not shown. As for the experimental part: After completion of the chemical analysis, different concentrations of the crude O. affinis cyclotide extract were tested for its anti-proliferative capacity on activated human primary PBMC (FIG. 2).
(In general: In flow cytometry, cells or beads pass a laser one at a time.)

For data set [8], the system named is activated human primary PBMC. In words: Anti-proliferative CFSE cell division assay on anti-CD3/CD28-activated PBMC. Particulars: CFSE, flow cytometry; extract 50-100 μg/mL, cyclotides 1.8-14 μM, melittin 0.05-1.6 μM. As for the experimental part:
Human peripheral blood mononuclear cells (PBMC) were isolated from the blood of healthy adult donors obtained from the Blood Transfusion Centre (University Medical Center, Freiburg, Germany). Venous blood was centrifuged on a LymphoPrep™ gradient (density: 1.077 g/cm^3, 20 min, 500×g, 20° C.; Progen, Heidelberg, Germany). Afterwards cells were washed twice with medium and cell viability and concentration was determined using the trypan blue exclusion test. PBMC were cultured in RPMI 1640 medium supplemented with 10% heat-inactivated fetal calf serum (PAA, Coelbe, Germany), 2 mM L-glutamine, 100 U/mL penicillin and […] (all from Invitrogen, Karlsruhe, Germany). The cells were cultured at 37° C. in a humidified incubator with a 5% CO2/95% air atmosphere. All experiments conducted on human material were approved by the Ethics committee of the University of Freiburg.
as §1
For cell proliferation and cell division tracking analysis PBMC were harvested and washed twice in cold PBS and resuspended in PBS at a concentration of 5×10^6 cells/mL. Cells were incubated for 10 min at 37° C. with carboxyfluorescein diacetate succinimidyl ester (CFSE; 5 μM: Sigma-Aldrich, Taufkirchen, Germany). The staining reaction was stopped by washing twice with complete medium. Afterwards, the cell division progress was analysed using flow cytometric analysis.
The anti-proliferative effect of cyclotide mutants/variants was tested according to Example 5. […] Afterwards the cell proliferation was assessed by analysing cell division using flow cytometric-based histogram analysis.

A short description of data set [9]: Relative hemolytic activity (other assays, Table 2). It is filed as cell-based. Particulars: some values given for the Ala mutant.
The subject of data set [10] is human T-lymphoblast cells. Particulars: read-out: IC50 cytotoxicity; Daly et al., 2004; cited from earlier work.
In data set [11] the test system is CNS inflammatory and demyelinating lesions. In words: Histopathology of CNS in EAE mice. It is filed as in vivo, mouse. The note with it: haemotoxylin/eosin, Luxol fast blue, Bielshowsky silver staining. From the text: At the completion of the experiments, mice were anesthetized, their blood collected (for subsequent antibody determination) and brain and spinal cord carefully removed, prior to immersion in a 4% paraformaldehyde, 0.1 M phosphate buffer solution. Segments of brain, cerebellum and spinal cord were embedded in paraffin. Sections were stained with haemotoxylin-eosin, Luxol fast blue and Bielshowsky for evidence of inflammation, demyelination and axonal damage, respectively (McQualter 2001 J Exp Med. October 1; 194(7), 873-82). Semiquantitative histological evaluation for inflammation and demyelination was performed and scored in a blind fashion as follows: 0, no inflammation; 1, cellular infiltrate only in the perivascular areas and meninges; 2, mild cellular infiltrate in parenchyma; 3, moderate cellular infiltrate in parenchyma; and 4, severe cellular infiltrate in parenchyma (Bettadapura J Neurochem 70, 199, 1593-1599 8; Okuda J Neuroimmunol 131, 2002, 115-125).
The influence of kalata B1 vaccination on the formation of CNS inflammatory and demyelinating lesions was examined by histological studies of fixed tissue using haemotoxylin/eosin, Luxol fast blue (LFB) and Bielshowsky silver staining.

For data set [12] the following is noted: Barry 2003; Henriques 2011; cited from earlier work.
Where [13] appears, read: non-stimulated spleen cell supernatants.

Where only a bound is given, the exact number is not on record here.

By IC50 is commonly meant the concentration needed to halve the response being measured.

Consider `CC(C)C[C@@H]1NC(=O)CNC(=O)[C@H](CC(N)=O)NC(=O)[C@H](CCCNC(=N)N)NC(=O)[C@H]([C@@H](C)O)NC(=O)[C@@H]2CSSC[C@@H]3NC(=O)[C@H]([C@@H](C)O)NC(=O)CNC(=O)CNC(=O)[C@H](C(C)C)NC(=O)[C@@H]4CSSC[C@H](NC(=O)[C@H]([C@@H](C)O)NC(=O)[C@H](CSSC[C@H](NC(=O)[C@H](C(C)C)NC(=O)[C@@H]5CCCN5C1=O)C(=O)NCC(=O)N[C@@H](CCC(=O)O)C(=O)N[C@@H]([C@@H](C)O)C(=O)N4)NC(=O)CNC(=O)[C@@H]1CCCN1C(=O)[C@H]([C@@H](C)O)NC(=O)[C@H](CC(N)=O)NC3=O)C(=O)N[C@@H](CO)C(=O)N[C@@H](Cc1c[nH]c3ccccc13)C(=O)N1CCC[C@H]1C(=O)N[C@@H](C(C)C)C(=O)N2` [Kalata B1], for which the values for the IC50 (with H. contortus nematodes; in data set [1]; in [10]) were 2.7 µM, 4.5 µM and 3.5 µM, respectively. For the same compound, in data set [2] (kalata B1 14 μM vs untreated control, Triton-X 100, melittin high concentrations), the induction of necrosis entry was “slightly increased”. Besides, in data set [2] (kalata B1 1.8-14 μM, CPT 30 μg/mL, melittin up to 1.6 μM), the induction of apoptosis entry is “no significant influence on the induction of apoptosis”. For the same compound, the “Relative activity in other assays (fold difference to kB1): nematocidal” value with nematodes was 1.0 fold difference to kB1. In addition, in the data set with anti-MOG antibodies, the “anti-MOG antibodies in sera” value was “anti-MOG antibodies were detected in all sera regardless of the vaccination regimen”. Besides, the “stimulation indices (SI), splenocyte proliferation to MOG” value in data set [3] came to 2.9±0.4. Also, in data set [4], the “Relative activity in other assays (fold difference to kB1): insecticidal” value is recorded as 1.0 fold difference to kB1. In [5] (MOG35-55 or CD3/38-stimulated, cyclotide vs control groups, data not shown), the “cytokine content in stimulated supernatants” value was “no marked changes in cytokine content”. For the same compound, the “level of TNFα” value in data set [5] (setting [13]) is “significantly reduced levels”. For the same compound, the “level of chemokine MIG” value in data set [5] (setting [13]) is “significantly reduced levels”. In data set [6] (p<0.01 vs PBS control group), this compound yielded a mean cumulative score of 42.2±13.0. The “incidence and severity of EAE” value in [6] (three sc injections in IFA at weekly intervals before EAE induction) is “reduction in the incidence and severity of EAE”. In addition, the “concentrations cytotoxic to the cells” value in data set [7] is “higher than 14 μM”. For the same compound, the “cell division / proliferation of activated PBMC (in words)” value in data set [8] is “dose-dependent decrease of the cell division capacity”. In data set [9], the “Relative activity in other assays (fold difference to kB1): hemolytic” value is 0.7 fold difference to kB1. Also, the “histological lesions of EAE” value in [11] was “some improvement in disease severity as judged by decrease in histological lesions of EAE”. Besides, the “concentrations causing hemolysis and membrane disruption” value in [12] is > 50 µM.
